Results: US11926626B2, “Heterocyclic GLP-1 agonists” (Gasherbrum Bio, Inc., priority 2020, dated 2024)

Target: GLP-1 Receptor (Homo sapiens, UniProt P43220)
Experiment: GLP-1R agonist cAMP stimulation assay (HEK293/GLP1R/CRE-Luc cells, HTRF cAMP)
Assay type: cell-based
Settings: 30 min, 37° C.
Experimental: Activation of GLP-1 receptor is known to stimulate cyclic AMP (cAMP) production in cells which indicates primary coupling to the Gαs subunit of the G protein heterotrimeric complex.
To optimize functional activity directed toward Gαs coupling, a HEK293/CRE-Luc cell line developed by HDB stably expressing the GLP-1 Receptor was used. […] 1×10^5 cells/mL HEK293/GLP1R/CRE-LUC(HD Biosciences) cell suspensions prepared with assay buffer[DPBS containing 0.5 mM IBMX (Sigma, Cat #I5879) and 0.1% BSA (GENVIEW, Cat #FA016-100g)], 10 uL cell suspensions were added to each well of previous generated assay plate which already contains 50 nl compound at 200×concentration using ThermoFisher Multidrop Combi (1000 cells/well). Seal the plate and incubate at 37° C. with 5% CO2 for 30 min.
After incubation the cAMP assay signal was generated using cAMP dynamic 2 Kit (Cisbio). 5 μL cAMP-d2 working solution was added to each well, followed with 5 μL Anti-cAMP antibody-cryptate working solution added to each well using ThermoFisher Multidrop Combi. Incubate at room temperature for 1 hour protected from light.

GLP-1 Receptor, sequence (P43220 24-463): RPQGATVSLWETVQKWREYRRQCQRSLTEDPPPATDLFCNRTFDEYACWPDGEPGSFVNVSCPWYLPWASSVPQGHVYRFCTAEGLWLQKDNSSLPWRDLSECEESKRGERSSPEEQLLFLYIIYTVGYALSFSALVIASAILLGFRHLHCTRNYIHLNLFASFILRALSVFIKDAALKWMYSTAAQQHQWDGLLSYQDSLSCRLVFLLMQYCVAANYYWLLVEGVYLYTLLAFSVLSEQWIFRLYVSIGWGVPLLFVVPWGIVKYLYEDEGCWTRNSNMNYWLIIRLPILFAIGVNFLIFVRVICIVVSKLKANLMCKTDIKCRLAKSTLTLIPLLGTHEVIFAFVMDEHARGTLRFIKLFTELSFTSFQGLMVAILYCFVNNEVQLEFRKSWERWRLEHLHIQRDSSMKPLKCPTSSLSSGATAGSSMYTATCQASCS

In the case of `O=C(O)c1ccc2nc(CN3CCC(C(F)(F)c4cccc(Cc5ccc(Cl)cc5F)n4)CC3)n(C[C@@H]3CCO3)c2n1` [Compound 173a, 2-{[4-({6-[(4-chloro-2-fluorophenyl)methyl]pyridin-2-yl}difluoromethyl)piperidin-1-yl]methyl}-3-{[(2S)-oxetan-2-yl]methyl}-3H-imidazo[4,5-b]pyridine-5-carboxylic acid], the “GLP1R cAMP Stimulation DR: pEC50” value is reported as 8.4.

Same assay, conditions: HEK293/CRE-Luc cells stably expressing GLP-1 Receptor; 30 min, 37° C.

Going from `O=C(O)c1ccc2nc(CN3CCC(Oc4ccnc(Cc5ccc(Cl)cc5F)n4)C(F)(F)C3)n(C[C@@H]3CCO3)c2n1` (stereo partly drawn) [Compound 168a, 2-{[4-({2-[(4-chloro-2-fluorophenyl)methyl]pyrimidin-4-yl}oxy)-3,3-difluoropiperidin-1-yl]methyl}-3-{[(2S)-oxetan-2-yl]methyl}-3H-imidazo[4,5-b]pyridine-5-carboxylic acid] to `O=C(O)c1ccc2nc(C[C@H]3CC[C@@H](Oc4ccnc(Cc5ccc(Cl)cc5F)n4)CC3)n(C[C@@H]3CCO3)c2n1` [Compound 175a, 3-{[(2S)-oxetan-2-yl]methyl}-2-{[cis-4-({2-[(4-chloro-2-fluorophenyl)methyl]pyrimidin-4-yl}oxy)cyclohexyl]methyl}-3H-imidazo[4,5-b]pyridine-5-carboxylic acid], the “GLP1R cAMP Stimulation DR: pEC50” value falls from 8.9 to 6.6.

Compared with `O=C(O)c1ccc2nc(C[C@H]3CC[C@@H](Oc4cccc(Cc5ccc(Cl)cc5F)n4)CC3)n(C[C@@H]3CCO3)c2n1` [Compound 174a, 3-{[(2S)-oxetan-2-yl]methyl}-2-{[cis-4-({6-[(4-chloro-2-fluorophenyl)methyl]pyridin-2-yl}oxy)cyclohexyl]methyl}-3H-imidazo[4,5-b]pyridine-5-carboxylic acid], `O=C(O)c1ccc2nc(C[C@H]3CC[C@H](Oc4cccc(Cc5ccc(Cl)cc5F)n4)CC3)n(C[C@@H]3CCO3)c2n1` [Compound 174b, 3-{[(2S)-oxetan-2-yl]methyl}-2-{[trans-4-({6-[(4-chloro-2-fluorophenyl)methyl]pyridin-2-yl}oxy)cyclohexyl]methyl}-3H-imidazo[4,5-b]pyridine-5-carboxylic acid] is higher in “GLP1R cAMP Stimulation DR: pEC50” value: 7.5 for the first, 9.9 for the second.

Compared with `O=C(O)c1ccc2nc(C[C@H]3CC[C@H](Oc4ccnc(Cc5ccc(Cl)cc5F)n4)CC3)n(C[C@@H]3CCO3)c2n1` [Compound 175b, 3-{[(2S)-oxetan-2-yl]methyl}-2-{[trans-4-({2-[(4-chloro-2-fluorophenyl)methyl]pyrimidin-4-yl}oxy)cyclohexyl]methyl}-3H-imidazo[4,5-b]pyridine-5-carboxylic acid], `O=C(O)c1ccc2nc(C[C@H]3CC[C@H](Oc4ccnc(Cc5ccc(Cl)cc5)n4)CC3)n(C[C@@H]3CCO3)c2n1` [Compound 177a, 3-{[(2S)-oxetan-2-yl]methyl}-2-{[trans-4-({2-[(4-chlorophenyl)methyl]pyrimidin-4-yl}oxy)cyclohexyl]methyl}-3H-imidazo[4,5-b]pyridine-5-carboxylic acid] is higher in “GLP1R cAMP Stimulation DR: pEC50” value: 10.2 for the first, 10.4 for the second.

Compared with `O=C(O)c1ccc2nc(C[C@H]3CC[C@H](Oc4ccnc(Cc5ccc(Cl)cc5)n4)CC3)n(C[C@@H]3CCO3)c2c1` [Compound 176a, 1-{[(2S)-oxetan-2-yl]methyl}-2-{[trans-4-({2-[(4-chlorophenyl)methyl]pyrimidin-4-yl}oxy)cyclohexyl]methyl}-1H-1,3-benzodiazole-6-carboxylic acid], `O=C(O)c1ccc2nc(C[C@H]3CC[C@H](Oc4cccc(Cc5ccc(Cl)cc5)n4)CC3)n(C[C@@H]3CCO3)c2n1` [Compound 181a, 3-{[(2S)-oxetan-2-yl]methyl}-2-{[trans-4-({6-[(4-chlorophenyl)methyl]pyridin-2-yl}oxy)cyclohexyl]methyl}-3H-imidazo[4,5-b]pyridine-5-carboxylic acid] is higher in “GLP1R cAMP Stimulation DR: pEC50” value: 9.4 for the first, 10.1 for the second.

`COCCn1c(C[C@H]2CC[C@H](Oc3ccnc(Cc4ccc(Cl)cc4)n3)CC2)nc2ccc(C(=O)O)nc21` [Compound 179a, 3-(2-methoxyethyl)-2-{[trans-4-({2-[(4-chlorophenyl)methyl]pyrimidin-4-yl}oxy)cyclohexyl]methyl}-3H-imidazo[4,5-b]pyridine-5-carboxylic acid] and `Cn1c(C[C@H]2CC[C@H](Oc3ccnc(Cc4ccc(Cl)cc4)n3)CC2)nc2ccc(C(=O)O)nc21` [Compound 180a, 3-methyl-2-{[trans-4-({2-[(4-chlorophenyl)methyl]pyrimidin-4-yl}oxy)cyclohexyl]methyl}-3H-imidazo[4,5-b]pyridine-5-carboxylic acid] are the same in “GLP1R cAMP Stimulation DR: pEC50” value: 8.6 for the first, 8.6 for the second.

`N#Cc1ccc(Cc2nccc(O[C@H]3CC[C@H](Cc4nc5ccc(C(=O)O)nc5n4C[C@@H]4CCO4)CC3)n2)cc1` [Compound 182a, 3-{[(2S)-oxetan-2-yl]methyl}-2-{[trans-4-({2-[(4-cyanophenyl)methyl]pyrimidin-4-yl}oxy)cyclohexyl]methyl}-3H-imidazo[4,5-b]pyridine-5-carboxylic acid] and `O=C(O)c1ccc2nc(C[C@H]3CC[C@H](Oc4nc(Cc5ccc(Cl)cc5)ncc4F)CC3)n(C[C@@H]3CCO3)c2n1` [Compound 188a, 3-{[(2S)-oxetan-2-yl]methyl}-2-{[trans-4-({2-[(4-chlorophenyl)methyl]-5-fluoropyrimidin-4-yl}oxy)cyclohexyl]methyl}-3H-imidazo[4,5-b]pyridine-5-carboxylic acid] are within 0.2 log units of each other in “GLP1R cAMP Stimulation DR: pEC50” value: 10.2 for the first, 10.3 for the second.

Going from `O=C(O)c1ccc2nc(CN3CCC(Oc4nn(Cc5ccc(Cl)cc5F)cc4Cl)CC3)n(C[C@@H]3CCO3)c2n1` [Compound 183a, 2-{[4-({4-chloro-1-[(4-chloro-2-fluorophenyl)methyl]-1H-pyrazol-3-yl}oxy)piperidin-1-yl]methyl}-3-{[(2S)-oxetan-2-yl]methyl}-3H-imidazo[4,5-b]pyridine-5-carboxylic acid] to `O=C(O)c1ccc2nc(CN3CCC(n4ncc5ccc(Cc6ccc(Cl)cc6F)nc54)CC3)n(C[C@@H]3CCO3)c2n1` [Compound 185a, 2-[(4-{6-[(4-chloro-2-fluorophenyl)methyl]-1H-pyrazolo[3,4-b]pyridin-1-yl}piperidin-1-yl)methyl]-3-{[(2S)-oxetan-2-yl]methyl}-3H-imidazo[4,5-b]pyridine-5-carboxylic acid], the “GLP1R cAMP Stimulation DR: pEC50” value rises from 9.1 to 9.3.

`O=C(O)c1ccc2nc(Cc3ccc(Oc4ccnc(Cc5ccc(Cl)cc5)n4)cc3)n(C[C@@H]3CCO3)c2n1` [Compound 186a, 2-{[4-({2-[(4-chlorophenyl)methyl]pyrimidin-4-yl}oxy)phenyl]methyl}-3-{[(2S)-oxetan-2-yl]methyl}-3H-imidazo[4,5-b]pyridine-5-carboxylic acid] and `O=C(O)c1ccc2nc(Cc3ccc(Oc4nc(Cc5ccc(Cl)cc5)ncc4F)cc3)n(C[C@@H]3CCO3)c2n1` [Compound 189a, 2-{[4-({2-[(4-chlorophenyl)methyl]-5-fluoropyrimidin-4-yl}oxy)phenyl]methyl}-3-{[(2S)-oxetan-2-yl]methyl}-3H-imidazo[4,5-b]pyridine-5-carboxylic acid] are the same in “GLP1R cAMP Stimulation DR: pEC50” value: 9.2 for the first, 9.2 for the second.

First: O=C(O)c1ccc2nc(Cc3ccc(Oc4ccnc(Cc5ccc(Cl)cc5)n4)cc3)n(C[C@@H]3CCO3)c2c1 [Compound 187a, 2-{[4-({2-[(4-chlorophenyl)methyl]pyrimidin-4-yl}oxy)phenyl]methyl}-1-{[(2S)-oxetan-2-yl]methyl}-1H-1,3-benzodiazole-6-carboxylic acid]
Second: O=C(O)c1ccc2nc(Cc3ccc(Oc4nc(Cc5ccc(Cl)cc5)ncc4F)cc3F)n(C[C@@H]3CCO3)c2c1 [Compound 191a, 2-{[4-({2-[(4-chlorophenyl)methyl]-5-fluoropyrimidin-4-yl}oxy)-2-fluorophenyl]methyl}-1-{[(2S)-oxetan-2-yl]methyl}-1H-1,3-benzodiazole-6-carboxylic acid]
The “GLP1R cAMP Stimulation DR: pEC50” value of the first is lower: 8.9 for the first, 9.5 for the second.

First: O=C(O)c1ccc2nc(Cc3ccc(Oc4nc(Cc5ccc(Cl)cc5)ncc4F)cc3F)n(C[C@@H]3CCO3)c2n1 [Compound 190a, 2-{[4-({2-[(4-chlorophenyl)methyl]-5-fluoropyrimidin-4-yl}oxy)-2-fluorophenyl]methyl}-3-{[(2S)-oxetan-2-yl]methyl}-3H-imidazo[4,5-b]pyridine-5-carboxylic acid]
Second: O=C(O)c1ccc2nc(CN3CC=C(c4cnc5ccc(Cc6ccc(Cl)cc6F)nn45)CC3)n(C[C@@H]3CCO3)c2n1 [Compound 192a, 2-[(4-{6-[(4-chloro-2-fluorophenyl)methyl]imidazo[1,2-b]pyridazin-3-yl}-1,2,3,6-tetrahydropyridin-1-yl)methyl]-3-{[(2S)-oxetan-2-yl]methyl}-3H-imidazo[4,5-b]pyridine-5-carboxylic acid]
The “GLP1R cAMP Stimulation DR: pEC50” value of the first is higher: 9.4 for the first, 6.9 for the second.

`O=C(O)c1ccc2nc(CN3CCC(Oc4ccnc(Cc5ccc(Cl)cc5)n4)CC3)n(Cc3cn[nH]c3)c2n1` [Compound 193, 3-((1H-pyrazol-4-yl)methyl)-2-((4-((2-(4-chlorobenzyl)pyrimidin-4-yl)oxy)piperidin-1-yl)methyl)-3H-imidazo[4,5-b]pyridine-5-carboxylic acid] was tested, and the “GLP1R cAMP Stimulation DR: pEC50” value was 9.7.
